Measured values as given in article PMC4920673, “Nitroimidazole carboxamides as antiparasitic agents targeting Giardia lamblia, Entamoeba histolytica and Trichomonas vaginalis” (European Journal of Medicinal Chemistry, 2016).
Converted amounts (≈) assume the structure as drawn. Where two headings read alike, the source gives them in different places.

Assays:
T. vaginalis F1623 = assay: ATP-bioluminescence growth/survival EC50 assay, T. vaginalis; format: cell-based, Trichomonas vaginalis; settings: Trichomonas vaginalis
Method: (§1) Compounds were screened for antiparasitic activity using an ATP-bioluminescence based assay for cell growth and survival, [24]. […] Viable cell numbers were determined in triplicate using the CellTiter-Glo Luminescent Cell Viability Assay.

[1] = test system: C. difficile 630 (ATCC BAA-1382); assay: Broth microdilution MIC assay, C. difficile 630; format: cell-based, Clostridium difficile; settings: Clostridioides difficile, ATCCBAA1382; strain 630, MtzS; median of n = 4; read-out: MIC C. difficile 630
Method: Clostridium difficile strains (630, ATCC BAA-1382 and NAP1/027, ATCC BAA-1803) were maintained as previously described. The minimum inhibition concentration (MIC) was determined according to the CLSI Methods with modifications in broth and inoculum for C. difficile, [25], [26]. Briefly, compounds and control antibiotics were serially diluted two-fold in 96-well plates (Non-binding surface, Corning). […] C. difficile bacteria from BHIS(TA) agar plates were cultured anaerobically in BHIS at 37 °C overnight. […] An antibiotic standard, a positive growth control (no compound) and a sterility control (no bacteria) were included on each 96 well plate. Plates were covered and incubated at 37 °C for 24 h. MICs for each strain were determined as the lowest concentration without visible growth. […] Median MICs are reported with a range given when the median MIC was between two tested concentrations.

[2] = Resazurin cytotoxicity assay, HepG2; format: cell-based, Human; settings: human, 24 h, highest concentration 100 μM, n = 3, read-out: CC50 Hep G2
Method: (§2) Human HEK293 and HepG2 cells were seeded at 3000 and 5000 cells per well in 384-well plates, respectively. Cells were cultured in Dulbecco's modified Eagle's medium with 10% FBS for 24 h at 37 °C, 5% CO2. A dilution series of compounds was added, with the highest concentration of 100 μM. […] After 24 h incubation with the compounds, 5 μM resazurin was added into each well and incubated at 37 °C for 2 h. As a negative control, 1% Triton X-100 was added into the culture media to lyse all of the cells. The fluorescence intensity was read using Polarstar Omega with excitation/emission 560/590 nm. Data were analysed with GraphPad Prism 6 software (La Jolla, California USA) to calculate CC50 values.

G. lamblia 713M3 (MtzR) = assay: ATP-bioluminescence growth/survival EC50 assay, G. lamblia 713M3; format: cell-based, Giardia lamblia; settings: Giardia duodenalis
Method: as §1

[3] = test system: C. difficile NAP1/027 (ATCC BAA-1803); assay: Broth microdilution MIC assay, C. difficile NAP1/027; format: cell-based, Clostridium difficile; settings: Clostridioides difficile, ATCCBAA1803; strain NAP1/027
Method: Clostridium difficile strains (630, ATCC BAA-1382 and NAP1/027, ATCC BAA-1803) were maintained as previously described. The minimum inhibition concentration (MIC) was determined according to the CLSI Methods with modifications in broth and inoculum for C. difficile, [25], [26]. Briefly, compounds and control antibiotics were serially diluted two-fold in 96-well plates (Non-binding surface, Corning). The plates were placed in a Coy anaerobic chamber (5% H2, 10% CO2, 85% N2) overnight to reduce the medium. C. difficile bacteria from BHIS(TA) agar plates were cultured anaerobically in BHIS at 37 °C overnight. […]. Compound concentration ranged from 64 to 0.03 μg/mL. An antibiotic standard, a positive growth control (no compound) and a sterility control (no bacteria) were included on each 96 well plate. Plates were covered and incubated at 37 °C for 24 h. MICs for each strain were determined as the lowest concentration without visible growth. Variance between replicates was typically within one 2-fold dilution. Median MICs are reported with a range given when the median MIC was between two tested concentrations.

[4] = Resazurin cytotoxicity assay, HEK293; format: cell-based, Human; settings: human, 24 h, highest concentration 100 μM, n = 3, read-out: CC50 HEK 293
Method: as §2

E. histolytica HM1:IMSS = assay: ATP-bioluminescence growth/survival EC50 assay, E. histolytica; format: cell-based, Entamoeba histolytica; settings: Entamoeba histolytica
Method: as §1

G. lamblia WB (MtzS) = assay: ATP-bioluminescence growth/survival EC50 assay, G. lamblia WB; settings: for S.I (CC50/EC50): average cytotoxicity against HEK293 and HepG2 / G. lamblia WB activity
Method: as §1

[5] = read-out: EC50 T. vaginalis F1623, MtzS, minimum n = 3
[6] = read-out: pEC50 ± SE T. vaginalis F1623, MtzS (converted)
[7] = read-out: EC50 G. lamblia 713M3, MtzR strain 713M3, minimum n = 3
[8] = read-out: pEC50 ± SE G. lamblia 713M3, MtzR strain 713M3 (converted)
[9] = read-out: EC50 E. histolytica HM1:IMSS
[10] = read-out: pEC50 ± SE E. histolytica HM1:IMSS (converted)
[11] = Giardia duodenalis, read-out: EC50 G. lamblia WB, MtzS strain WB, minimum n = 3
[12] = Giardia duodenalis, read-out: pEC50 ± SE G. lamblia WB, MtzS strain WB (converted)

CC(NC(=O)c1ncc([N+](=O)[O-])n1C)c1ccc(F)cc1 (stereo not shown) [Compound 8d, N-(1-(4-fluorophenyl)ethyl)-1-methyl-5-nitro-1H-imidazole-2-carboxamide]
EC50 (T. vaginalis F1623; [5]): 3.8 µM | EC50 (T. vaginalis F1623; [6]): 3.8 µM | MIC [1]: 64 µg/mL (≈ 219 µM) | CC50 at 24 h ([2]; HepG2 cells): > 100 µM | EC50 (G. lamblia 713M3 (MtzR); [7]): 1.9 µM | EC50 (G. lamblia 713M3 (MtzR); [8]): 1.86 µM | MIC [3]: > 64 µg/mL | CC50 at 24 h ([4]; HEK293 cells): > 100 µM | EC50 (E. histolytica HM1:IMSS; [9]): 10 µM | EC50 (E. histolytica HM1:IMSS; [10]): 10 µM | EC50 (G. lamblia WB (MtzS); [11]): 2.9 µM | EC50 (G. lamblia WB (MtzS); [12]): 2.88 µM | S.I (CC50/EC50) (G. lamblia WB (MtzS)): >34

Cc1ccc(CCNC(=O)c2ncc([N+](=O)[O-])n2C)cc1 [Compound 8e, 1-methyl-N-(4-methylphenethyl)-5-nitro-1H-imidazole-2-carboxamide]
EC50 (T. vaginalis F1623; [6]): 8.13 µM | MIC [1]: > 64 µg/mL | CC50 at 24 h ([2]; HepG2 cells): > 100 µM | EC50 (G. lamblia 713M3 (MtzR); [7]): > 20 µM | EC50 (G. lamblia 713M3 (MtzR); [8]): > 20 µM | MIC [3]: > 64 µg/mL | CC50 at 24 h ([4]; HEK293 cells): > 100 µM | EC50 (E. histolytica HM1:IMSS; [9]): 13 µM | EC50 (E. histolytica HM1:IMSS; [10]): 12.9 µM | EC50 (G. lamblia WB (MtzS); [11]): 2.8 to 3.5 µM | EC50 (G. lamblia WB (MtzS); [12]): 2.82 µM | S.I (CC50/EC50) (G. lamblia WB (MtzS)): >36 | EC50 (G. lamblia WB (MtzS); read-out: EC50 G. lamblia WB, MtzS strain WB, minimum n = 3): 2.8 µM

NC(=O)c1nc([N+](=O)[O-])cn1Cc1ccc(F)cc1 [Compound 13a, 1-(4-fluorobenzyl)-4-nitro-1H-imidazole-2-carboxamide]
MIC [1]: > 64 µg/mL | CC50 at 24 h [2]: > 100 µM | CC50 at 24 h [4]: > 100 µM | EC50 (E. histolytica HM1:IMSS; [9]): > 50 µM | EC50 (E. histolytica HM1:IMSS; [10]): > 50.1 µM | EC50 (G. lamblia WB (MtzS); [11]): > 50 µM | EC50 (G. lamblia WB (MtzS); [12]): > 50.1 µM

NC(=O)c1nc([N+](=O)[O-])cn1Cc1ccc(OC(F)(F)F)cc1 [Compound 13b, 4-nitro-1-(4-(trifluoromethoxy)benzyl)-1H-imidazole-2-carboxamide]
MIC [1]: > 64 µg/mL | CC50 at 24 h [2]: > 100 µM | CC50 at 24 h [4]: > 100 µM | EC50 (E. histolytica HM1:IMSS; [9]): > 25 µM | EC50 (E. histolytica HM1:IMSS; [10]): > 25.1 µM | EC50 (G. lamblia WB (MtzS); [11]): 4.1 µM | EC50 (G. lamblia WB (MtzS); [12]): 4.07 µM | S.I (CC50/EC50) (G. lamblia WB (MtzS)): >22

NC(=O)c1nc([N+](=O)[O-])cn1Cc1cccc(OC(F)(F)F)c1 [Compound 13c, 4-nitro-1-(3-(trifluoromethoxy)benzyl)-1H-imidazole-2-carboxamide]
MIC [1]: > 64 µg/mL | CC50 at 24 h [2]: > 100 µM | CC50 at 24 h [4]: > 100 µM | EC50 (E. histolytica HM1:IMSS; [9]): > 50 µM | EC50 (E. histolytica HM1:IMSS; [10]): > 50.1 µM | EC50 (G. lamblia WB (MtzS); [11]): 8.4 µM | EC50 (G. lamblia WB (MtzS); [12]): 8.32 µM | S.I (CC50/EC50) (G. lamblia WB (MtzS)): >12

Cc1ccc(CCn2cc([N+](=O)[O-])nc2C(N)=O)cc1 [Compound 13d, 1-(4-methylphenethyl)-4-nitro-1H-imidazole-2-carboxamide]
MIC [1]: > 64 µg/mL | CC50 at 24 h ([2]; HepG2 cells): > 100 µM | MIC [3]: > 64 µg/mL | CC50 at 24 h ([4]; HEK293 cells): > 100 µM | EC50 (E. histolytica HM1:IMSS; [9]): > 50 µM | EC50 (E. histolytica HM1:IMSS; [10]): > 50.1 µM | EC50 (G. lamblia WB (MtzS); [11]): > 50 µM | EC50 (G. lamblia WB (MtzS); [12]): > 50.1 µM

NC(=O)c1nc([N+](=O)[O-])cn1Cc1ccccn1 [Compound 13e, 4-nitro-1-(pyridin-2-ylmethyl)-1H-imidazole-2-carboxamide]
MIC [1]: > 64 µg/mL | CC50 at 24 h ([2]; HepG2 cells): > 100 µM | MIC [3]: > 64 µg/mL | CC50 at 24 h ([4]; HEK293 cells): > 100 µM | EC50 (E. histolytica HM1:IMSS; [9]): > 50 µM | EC50 (E. histolytica HM1:IMSS; [10]): > 50.1 µM | EC50 (G. lamblia WB (MtzS); [11]): 27 µM | EC50 (G. lamblia WB (MtzS); [12]): 26.9 µM | S.I (CC50/EC50) (G. lamblia WB (MtzS)): >3.7

CNC(=O)c1nc([N+](=O)[O-])cn1Cc1ccc(OC(F)(F)F)cc1 [Compound 14a, N-methyl-4-nitro-1-(4-(trifluoromethoxy)benzyl)-1H-imidazole-2-carboxamide]
CC50 at 24 h [2]: > 100 µM | MIC [3]: > 64 µg/mL | CC50 at 24 h [4]: > 100 µM | EC50 (E. histolytica HM1:IMSS; [9]): 30 µM | EC50 (E. histolytica HM1:IMSS; [10]): 30.2 µM | EC50 (G. lamblia WB (MtzS); [11]): 3.4 µM | EC50 (G. lamblia WB (MtzS); [12]): 3.39 µM | S.I (CC50/EC50) (G. lamblia WB (MtzS)): >29

CN(C)C(=O)c1nc([N+](=O)[O-])cn1Cc1ccc(OC(F)(F)F)cc1 [Compound 14b, N,N-dimethyl-4-nitro-1-(4-(trifluoromethoxy)benzyl)-1H-imidazole-2-carboxamide]
MIC [1]: 64 µg/mL (≈ 179 µM) | CC50 at 24 h [2]: > 100 µM | MIC [3]: 64 µg/mL (≈ 179 µM) | CC50 at 24 h [4]: > 100 µM | EC50 (E. histolytica HM1:IMSS; [9]): 19 µM | EC50 (E. histolytica HM1:IMSS; [10]): 19.1 µM | EC50 (G. lamblia WB (MtzS); [11]): 2.7 µM | EC50 (G. lamblia WB (MtzS); [12]): 2.69 µM | S.I (CC50/EC50) (G. lamblia WB (MtzS)): >37

NNC(=O)c1nc([N+](=O)[O-])cn1Cc1ccc(OC(F)(F)F)cc1 [Compound 14e, 4-nitro-1-(4-(trifluoromethoxy)benzyl)-1H-imidazole-2-carbohydrazide]
MIC [1]: > 64 µg/mL | CC50 at 24 h [2]: > 100 µM | MIC [3]: > 64 µg/mL | CC50 at 24 h [4]: > 100 µM | EC50 (E. histolytica HM1:IMSS; [9]): 45 µM | EC50 (E. histolytica HM1:IMSS; [10]): 44.7 µM | EC50 (G. lamblia WB (MtzS); [11]): 7.5 µM | EC50 (G. lamblia WB (MtzS); [12]): 7.59 µM | S.I (CC50/EC50) (G. lamblia WB (MtzS)): >13

O=C(NCc1ccc(F)cc1)c1ncc[nH]1 [Compound 17, N-(4-fluorobenzyl)-1H-imidazole-2-carboxamide]
EC50 (T. vaginalis F1623; [5]): > 20 µM | MIC [1]: > 64 µg/mL | EC50 (E. histolytica HM1:IMSS; [9]): > 50 µM | EC50 (G. lamblia WB (MtzS); [11]): > 50 µM

NC(=O)c1nccn1Cc1ccc(OC(F)(F)F)cc1 [Compound 18, 1-(4-(trifluoromethoxy)benzyl)-1H-imidazole-2-carboxamide]
MIC [1]: > 64 µg/mL | EC50 (E. histolytica HM1:IMSS; [9]): > 50 µM | EC50 (G. lamblia WB (MtzS); [11]): > 50 µM

Nc1c[nH]c(C(=O)NCc2ccc(F)cc2)n1 [Compound 20, 4-amino-N-(4-fluorobenzyl)-1H-imidazole-2-carboxamide]
EC50 (T. vaginalis F1623; [5]): > 20 µM | MIC [1]: > 64 µg/mL | EC50 (E. histolytica HM1:IMSS; [9]): > 50 µM | EC50 (G. lamblia WB (MtzS); [11]): > 50 µM
